Experimental findings from ChEMBL document CHEMBL1201862, “PubChem BioAssay data set” (2004) are described below.

Common to all, as to experiment: NCI anticancer screen, dose series, 48 h
Assay [1] has as its system HCT-116.
The subject of assay [2] is K562.
The subject of assay [3] is OVCAR-4.
Assay [4] deals with SF-268.
Assay [5] concerns NCI-H460.
The test system of assay [6] is HCC 2998.
Assay [7] concerns ACHN.
Assay [8] relates to SNB-75.
Assay [9] deals with RXF 393.
Assay [10] has as its system SK-OV-3.
Assay [11] relates to OVCAR-5.
The test system of assay [12] is OVCAR-3.
In assay [13] the test system is RPMI-8226.
The subject of assay [14] is SF-539.
For assay [15], the system named is HOP-62.
The subject of assay [16] is LOX IMVI.
Assay [17] relates to T47D.
Assay [18] deals with DU-145.
The test system of assay [19] is MDA-MB-435.

Structures are written as SMILES.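 How tested: cells in 96-well plates exposed to compound for 48 hours at five concentrations. GI50 marks 50% less growth.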 The source made the active and inactive calls. No stated cut-off is given here; in the data, active = GI50 up to about 1.1 µM and inactive = higher. Some results are limits rather than exact numbers.

Turning to `O=C(CSc1nnc(Cc2ccccc2)o1)Nc1cccc([N+](=O)[O-])c1`, the GI50 in [1], in [2], in [3], in [4], in assay [5] and in [6] was > 100 µM (inactive) throughout. Also, the GI50 in assay [7] is > 100 µM (inactive); in assay [8], 58.5 µM (inactive); in assay [9], > 100 µM (inactive); in [10], > 100 µM (inactive); in assay [11], > 100 µM (inactive); in assay [12], > 100 µM (inactive). Also, the GI50 in [13], in assay [14], in assay [15] and in assay [16] was > 100 µM (inactive) in each case.
In the case of `CCOc1ccc(NCC(=O)N2CC(=O)Nc3ccccc32)cc1`, the GI50 in assay [1], in [2], in [3], in assay [4], in assay [5] and in assay [6] was > 100 µM (inactive) each time. The GI50 in assay [7], in [8], in assay [9], in assay [10], in [11] and in [12] was > 100 µM (inactive) in each case. Besides, the GI50 in [13], in [14], in assay [15] and in assay [16] was > 100 µM (inactive) throughout.
In the case of `O=C(/C=C/c1ccc(O)c(O)c1)NCCc1ccc(-c2ccccc2)cc1`, the GI50 in [1] is 27.3 µM (inactive); in assay [2], 27.2 µM (inactive); in assay [3], > 100 µM (inactive); in [4], 31.8 µM (inactive); in assay [5], 48.9 µM (inactive); in [6] it was 54.3 µM (inactive). For the same compound, the GI50 is > 100 µM (inactive) in assay [17]; > 100 µM (inactive) in assay [8]; 57.1 µM (inactive) in assay [9]; > 100 µM (inactive) in assay [10]; > 100 µM (inactive) in assay [18]; 87.7 µM (inactive) in [11]. Also, the GI50 in assay [12] is 20.4 µM (inactive); in [13], 39.4 µM (inactive); in [14] it was > 100 µM (inactive); in assay [15] it was 31.3 µM (inactive).
Consider `Cc1cc(C)n(C(=CC(=O)C(Cl)Cl)n2nc(C)cc2C)n1`, for which the GI50 is 1.76 µM (inactive) in assay [1]; 2.17 µM (inactive) in assay [2]; > 100 µM (inactive) in assay [3]; 6.38 µM (inactive) in assay [4]; 6.97 µM (inactive) in assay [5]; 4.06 µM (inactive) in assay [17]. Further, the GI50 in assay [7] is 6.05 µM (inactive); in assay [19], 2.52 µM (inactive); in assay [8] it was > 100 µM (inactive); in [9], 2.61 µM (inactive); in assay [10], 23.5 µM (inactive); in [18], 5.38 µM (inactive). For the same compound, the GI50 in assay [11] is 3.48 µM (inactive); in assay [12] it was 3.66 µM (inactive); in assay [13], 0.871 µM (active); in assay [14] it was 3.43 µM (inactive); in assay [15] it was 3.66 µM (inactive); in assay [16], 1.57 µM (inactive).
With `Nc1nc(Cl)cc(/N=N\c2ccccc2)n1`, the GI50 in assay [1] is 16.4 µM (inactive); in [2], 2.14 µM (inactive); in assay [4] it was 29.5 µM (inactive); in assay [17] it was 32.6 µM (inactive); in assay [7], 26.6 µM (inactive); in assay [19], > 100 µM (inactive). Besides, the GI50 is 38.7 µM (inactive) in [8]; 30.3 µM (inactive) in assay [9]; 66.1 µM (inactive) in [10]; > 100 µM (inactive) in assay [18]; 72.1 µM (inactive) in assay [11]; 11.7 µM (inactive) in [12]. Moreover, the GI50 is 20.7 µM (inactive) in assay [13], 78.9 µM (inactive) in assay [14], 24.1 µM (inactive) in assay [15] and 18.5 µM (inactive) in assay [16].
Take `COc1ccc2c(c1OC)OC[C@@H](C1=CC(=O)C=C(O)C1=O)C2`: the GI50 in [1] is 4.7 µM (inactive); in [2] it was 2.2 µM (inactive); in assay [3], 5.53 µM (inactive); in assay [4], 18.1 µM (inactive); in assay [5], 11.8 µM (inactive); in [6], 17.2 µM (inactive). Moreover, the GI50 in assay [17] is 4.25 µM (inactive); in assay [7], 4.8 µM (inactive); in [19] it was 8.61 µM (inactive); in assay [8] it was 9.62 µM (inactive); in assay [9], 6.4 µM (inactive); in [10], 16.6 µM (inactive). In addition, the GI50 in assay [18] is 15.7 µM (inactive); in [11], 18 µM (inactive); in assay [12] it was 7.62 µM (inactive); in assay [13] it was 1.91 µM (inactive); in assay [14], 13.5 µM (inactive); in assay [15], 27 µM (inactive). Also, in [16], the GI50 was 3.32 µM (inactive).
Consider `Cc1cc(NS(=O)(=O)c2ccc(NC(=O)COC(=O)c3cccc4c(=O)c5ccccc5[nH]c34)cc2)no1`, for which the GI50 in [1], in assay [2], in [3], in [4], in [5] and in [6] was > 100 µM (inactive) throughout. Besides, the GI50 in [7], in [8], in [9], in assay [10], in assay [11] and in [12] was > 100 µM (inactive) throughout. The GI50 in assay [13], in [14], in assay [15] and in assay [16] was > 100 µM (inactive) in each case.
Take `COC(=O)C(Cc1nc2ccc(Cl)cc2nc1O)/C(=N/O)C(=O)Nc1cccc(Cl)c1C` (stereo not given): the GI50 in [1], in assay [2], in assay [3], in assay [4], in [5] and in assay [6] was > 100 µM (inactive) in each case. For the same compound, the GI50 in assay [7] was > 100 µM (inactive); in [8], 65.6 µM (inactive); in assay [9] it was 88.1 µM (inactive); in assay [10], > 100 µM (inactive); in [11], > 100 µM (inactive); in assay [12], > 100 µM (inactive). Besides, the GI50 in [13], in assay [14], in assay [15] and in assay [16] was > 100 µM (inactive) each time.
As for `N#CC1(C#N)NC(c2cccs2)C(C#N)(C#N)NC1c1cccs1` (stereo not given), the GI50 was 30.5 µM (inactive) in assay [1]; 22.4 µM (inactive) in [2]; 43.7 µM (inactive) in assay [3]; 35.5 µM (inactive) in assay [4]; 37.3 µM (inactive) in assay [5]; 57.1 µM (inactive) in assay [6]. Besides, the GI50 was 51.2 µM (inactive) in assay [17]; 25.4 µM (inactive) in [7]; 46.1 µM (inactive) in assay [19]; 27.4 µM (inactive) in [8]; 31.7 µM (inactive) in [9]; 33.7 µM (inactive) in assay [10]. Besides, the GI50 in assay [18] was 59.7 µM (inactive); in assay [11] it was 31.9 µM (inactive); in [12] it was 25.2 µM (inactive); in [13], 27.4 µM (inactive); in assay [14], 19.9 µM (inactive); in assay [15], > 100 µM (inactive). Also, the GI50 in [16] is 19.7 µM (inactive).
With `CCOc1cccc2sc(N)nc12`, the GI50 in [1], in [2], in assay [3], in assay [4], in assay [5] and in assay [6] was > 100 µM (inactive) throughout. Moreover, the GI50 in assay [7], in assay [8], in assay [9], in assay [10], in assay [11] and in [12] was > 100 µM (inactive) throughout. For the same compound, the GI50 in assay [13], in [14], in [15] and in [16] was > 100 µM (inactive) throughout.
As to `COc1cc2c(c(OC)c1OC)-c1ccc(SC)c(=O)cc1[C@@H](NCc1ccc(C#N)cc1)CC2`, the GI50 in assay [1] is 0.00387 µM (active); in assay [2], 0.00383 µM (active); in [3] it was 3.74 µM (inactive); in assay [4], 0.00612 µM (active); in [5] it was 0.00379 µM (active); in [6], 0.00291 µM (active). For the same compound, the GI50 was 0.00612 µM (active) in assay [7]; 0.00307 µM (active) in assay [8]; 0.00185 µM (active) in [9]; 0.0031 µM (active) in assay [10]; 0.00736 µM (active) in assay [11]; 0.00321 µM (active) in [12]. For the same compound, the GI50 in [13] was 0.00315 µM (active); in assay [14], 0.00252 µM (active); in assay [15], 0.004 µM (active); in assay [16] it was 0.00521 µM (active).
Consider `O=C1CC(c2ccc(Cl)cc2)Oc2ccccc21` (stereo not given), for which the GI50 in [1] is 37.3 µM (inactive); in assay [2], 4.86 µM (inactive); in assay [3] it was 43.4 µM (inactive); in assay [4], 28.4 µM (inactive); in [5] it was 19.8 µM (inactive); in [6], 25.6 µM (inactive). Also, the GI50 in [17] was 32 µM (inactive); in assay [7] it was 36.1 µM (inactive); in assay [19], 36.8 µM (inactive); in assay [8], 13.6 µM (inactive); in assay [10], 19.4 µM (inactive); in [18], 69 µM (inactive). Further, the GI50 in [13] is 3.96 µM (inactive); in [14] it was 13.4 µM (inactive); in assay [15], 19.6 µM (inactive); in [16], 29.8 µM (inactive).
